Tests used:
[1] = system: SKOV3; experiment: Anti-cancer activity against ovarian cancer cells SKOV3 (cell killing in solution / in vitro cell proliferation); type: cell-based; settings: Homo sapiens, SK-OV-3, ovarian cancer cells SKOV3
Description: Biotinylated LLS2 was synthesized in solution and loaded it onto a streptavidin-coated plate. The biotinylated LLS2 immobilized on the plate killed approximately 21% of SKOV3 ovarian cancer cells at 100 μM loading, 16% at 50 μM and 14% at 25 μM (FIG. 4). The killing effect of the LLS2 compound was also tested in solution. […] In addition, LLS2 can kill pancreatic cancer cell line XPA3, prostate cancer cell line PC3, colon cancer cell line HT29, breast cancer cell line MCF7 and lung cancer cell line A549 (FIG. 4).

[2] = system: 22RV1 prostate cancer cells; experiment: Cell viability of prostate cancer 22RV1 cells after 72 hours treatment; type: cell-based; settings: Homo sapiens

SMILES | IC50 [1] | viability at 2.5 µM [2] | viability at 5 µM [2] | viability at 10 µM [2]
CC(=O)OCCN(CCOC(C)=O)c1ccc(-c2nc3cc(C(CC(N)=O)N(Cc4ccc(Cl)c(Cl)c4)Cc4ccc(Cl)c(Cl)c4)ccc3n2CC23CC4CC(CC(C4)C2)C3)cc1 (stereo not shown) [LLS25, ((4-(1-(((1s,3s)-adamantan-1-yl)methyl)-5-(3-amino-1-(bis(3,4-dichlorobenzyl)amino)-3-oxopropyl)-1H-benzo[d]imidazol-2-yl)phenyl)azanediyl)bis(ethane-2,1-diyl) Diacetate] | 20.7 µM |  |  | 
CC(=O)OCCN(CCOC(C)=O)c1ccc(-c2nc3cc(C(CC(N)=O)NCc4ccc(Cl)c(Cl)c4)ccc3n2Cc2ccc(OC(F)(F)F)cc2)cc1 (stereo not shown) [LLS23, ((4-(5-(3-amino-1-((3,4-dichlorobenzyl)amino)-3-oxopropyl)-1-(4-(trifluoromethoxy)benzyl)-1H-benzo[d]imidazol-2-yl)phenyl)azanediyl)bis(ethane-2,1-diyl) Diacetate] | 8.4 µM |  |  | 
NC(=O)CC(NCc1c(Cl)cccc1Cl)c1ccc2c(c1)nc(-c1ccc(N(CCO)CCO)cc1)n2Cc1ccc(F)c(F)c1 (stereo not shown) [LLS14, 3-(2-(4-(bis(2-hydroxyethyl)amino)phenyl)-1-(3,4-difluorobenzyl)-1H-benzo[d]imidazol-5-yl)-3-((2,6-dichlorobenzyl)amino)propanamide] | 29.2 µM |  |  | 
CC(=O)OCCN(CCO)c1ccc(-c2nc3cc(C(CC(N)=O)NCc4ccc(Cl)c(Cl)c4)ccc3n2Cc2ccc(Cl)c(Cl)c2)cc1 (stereo not shown) [LLS33, 2-((4-(5-(3-amino-1-((3,4-dichlorobenzyl)amino)-3-oxopropyl)-1-(3,4-dichlorobenzyl)-1H-benzo[d]imidazol-2-yl)phenyl)(2-hydroxyethyl)amino)ethyl Acetate] | 10 µM |  |  | 
NC(=O)CC(NCC1CCCCC1)c1ccc2c(c1)nc(-c1ccc(N3CCOCC3)cc1)n2Cc1ccc(Br)cc1 (stereo not shown) [LLS94, 3-(1-(4-bromobenzyl)-2-(4-morpholinophenyl)-1H-benzo[d]imidazol-5-yl)-3-((cyclohexylmethyl)amino)propanamide] |  | 3% | 0% | 0%
NC(=O)CC(NCc1ccc(Cl)c(Cl)c1)c1ccc2c(c1)nc(-c1ccc(N(CCO)CCO)cc1)n2Cc1ccc(C(F)(F)F)cc1 (stereo not shown) [LLS92, 3-(2-(4-(bis(2-hydroxyethyl)amino)phenyl)-1-(4-(trifluoromethyl)benzyl)-1H-benzo[d]imidazol-5-yl)-3-((3,4-dichlorobenzyl)amino)propanamide] |  | 74% | 15% | 1%
CN(C)CCCOc1ccc(-c2nc3cc(C(CC(N)=O)NCC4CCCCC4)ccc3n2Cc2ccc(OC(F)(F)F)cc2)cc1 (stereo not shown) [LLS89, 3-((cyclohexylmethyl)amino)-3-(2-(4-(3-(dimethylamino)propoxy)phenyl)-1-(4-(trifluoromethoxy)benzyl)-1H-benzo[d]imidazol-5-yl)propanamide] |  | 1% | 0% | 0%
NC(=O)CC(NCc1ccc(Cl)c(Cl)c1)c1ccc2c(c1)nc(-c1ccc(N(CCO)CCO)cc1)n2CC1CCCCC1 (stereo not shown) [LLS104, 3-(2-(4-(bis(2-hydroxyethyl)amino)phenyl)-1-(cyclohexylmethyl)-1H-benzo[d]imidazol-5-yl)-3-((3,4-dichlorobenzyl)amino)propanamide] |  | 82% | 31% | 1%
NC(=O)CC(NCc1ccc(Cl)c(Cl)c1)c1ccc2c(c1)nc(-c1ccc(N(CCO)CCO)cc1)n2Cc1ccc2c(c1)OCO2 (stereo not shown) [LLS106, 3-(1-(benzo[d][1,3]dioxol-5-ylmethyl)-2-(4-(bis(2-hydroxyethyl)amino)phenyl)-1H-benzo[d]imidazol-5-yl)-3-((3,4-dichlorobenzyl)amino)propanamide] |  | 30% | 2% | 0%
CN1CCN(c2ccc(-c3nc4cc(C(CC(N)=O)NCc5ccc(Cl)c(Cl)c5)ccc4n3Cc3ccc(Cl)c(Cl)c3)cc2)CC1 (stereo not shown) [LLS86, 3-(1-(3,4-dichlorobenzyl)-2-(4-(4-methylpiperazin-1-yl)phenyl)-1H-benzo[d]imidazol-5-yl)-3-((3,4-dichlorobenzyl)amino)propanamide] |  | 45% | 0% | 0%
CN1CCN(c2ccc(-c3nc4cc(C(CC(N)=O)NCC5CCCCC5)ccc4n3Cc3ccc(Cl)c(C(F)(F)F)c3)cc2)CC1 (stereo not shown) [LLS99, 3-(1-(4-chloro-3-(trifluoromethyl)benzyl)-2-(4-(4-methylpiperazin-1-yl)phenyl)-1H-benzo[d]imidazol-5-yl)-3-((cyclohexylmethyl)amino)propanamide] |  | 1% | 0% | 0%
NC(=O)CC(NCC1CCCCC1)c1ccc2c(c1)nc(-c1ccc(N3CCOCC3)cc1)n2Cc1ccc(Cl)c(C(F)(F)F)c1 (stereo not shown) [LLS98, 3-(1-(4-chloro-3-(trifluoromethyl)benzyl)-2-(4-morpholinophenyl)-1H-benzo[d]imidazol-5-yl)-3-((cyclohexylmethyl)amino)propanamide] |  | 40% | 0% | 0%
NC(=O)CC(NCC1CCCCC1)c1ccc2c(c1)nc(-c1ccc(N3CCOCC3)cc1)n2Cc1ccc(C(F)(F)F)c(F)c1 (stereo not shown) [LLS96, 3-((cyclohexylmethyl)amino)-3-(1-(3-fluoro-4-(trifluoromethyl)benzyl)-2-(4-morpholinophenyl)-1H-benzo[d]imidazol-5-yl)propanamide] |  | 45% | 0% | 0%
NC(=O)CC(NCc1ccc(Cl)c(Cl)c1)c1ccc2c(c1)nc(-c1ccc(N(CCO)CCO)cc1)n2CCc1ccccn1 (stereo not shown) [LLS108, 3-(2-(4-(bis(2-hydroxyethyl)amino)phenyl)-1-(2-(pyridin-2-yl)ethyl)-1H-benzo[d]imidazol-5-yl)-3-((3,4-dichlorobenzyl)amino)propanamide] |  | 89% | 100% | 101%
NC(=O)CC(NCC1CCCCC1)c1ccc2c(c1)nc(-c1ccc(N3CCOCC3)cc1)n2Cc1ccc2c(c1)OCO2 (stereo not shown) [LLS107, 3-(1-(benzo[d][1,3]dioxol-5-ylmethyl)-2-(4-morpholinophenyl)-1H-benzo[d]imidazol-5-yl)-3-((cyclohexylmethyl)amino)propanamide] |  | 67% | 4% | 0%
NC(=O)CC(NCC1CCCCC1)c1ccc2c(c1)nc(-c1ccc(N3CCOCC3)cc1)n2CCc1ccccn1 (stereo not shown) [LLS109, 3-((cyclohexylmethyl)amino)-3-(2-(4-morpholinophenyl)-1-(2-(pyridin-2-yl)ethyl)-1H-benzo[d]imidazol-5-yl)propanamide] |  | 98% | 88% | 88%
NC(=O)CC(NCC1CCCCC1)c1ccc2c(c1)nc(-c1ccc(N3CCOCC3)cc1)n2Cc1cccc2ccccc12 (stereo not shown) [LLS103, 3-((cyclohexylmethyl)amino)-3-(2-(4-morpholinophenyl)-1-(naphthalen-1-ylmethyl)-1H-benzo[d]imidazol-5-yl)propanamide] |  | 1% | 0% | 0%
NC(=O)CC(NCc1ccc(Cl)c(Cl)c1)c1ccc2c(c1)nc(-c1cccc(OCCN3CCOCC3)c1)n2Cc1ccc(Cl)c(Cl)c1 (stereo not shown) [LLS87, 3-(1-(3,4-dichlorobenzyl)-2-(3-(2-morpholinoethoxy)phenyl)-1H-benzo[d]imidazol-5-yl)-3-((3,4-dichlorobenzyl)amino)propanamide] |  | 76% | 56% | 0%
NC(=O)CC(NCc1ccc(Cl)c(Cl)c1)c1ccc2c(c1)nc(-c1ccc(N(CCO)CCO)cc1)n2Cc1ccc(Cl)c(C(F)(F)F)c1 (stereo not shown) [LLS97, 3-(2-(4-(bis(2-hydroxyethyl)amino)phenyl)-1-(4-chloro-3-(trifluoromethyl)benzyl)-1H-benzo[d]imidazol-5-yl)-3-((3,4-dichlorobenzyl)amino)propanamide] |  | 23% | 0% | 0%
NC(=O)CC(NCC1CCCCC1)c1ccc2c(c1)nc(-c1ccncc1)n2Cc1ccc(OC(F)(F)F)cc1 (stereo not shown) [LLS88, 3-((cyclohexylmethyl)amino)-3-(2-(pyridin-4-yl)-1-(4-(trifluoromethoxy)benzyl)-1H-benzo[d]imidazol-5-yl)propanamide] |  | 75% | 4% | 0%
NC(=O)CC(NCc1ccc(Cl)c(Cl)c1)c1ccc2c(c1)nc(-c1ccc(N(CCO)CCO)cc1)n2Cc1ccc(Br)cc1 (stereo not shown) [LLS93, 3-(2-(4-(bis(2-hydroxyethyl)amino)phenyl)-1-(4-bromobenzyl)-1H-benzo[d]imidazol-5-yl)-3-((3,4-dichlorobenzyl)amino)propanamide] |  | 22% | 2% | 0%
NC(=O)CC(NCC1CCCCC1)c1ccc2c(c1)nc(-c1ccc(N(CCO)CCO)cc1)n2Cc1ccc(Cl)c(Cl)c1 (stereo not shown) [LLS101, 3-(2-(4-(bis(2-hydroxyethyl)amino)phenyl)-1-(3,4-dichlorobenzyl)-1H-benzo[d]imidazol-5-yl)-3-((cyclohexylmethyl)amino)propanamide] |  | 20% | 1% | 0%
NC(=O)CC(NCc1ccc(Cl)c(Cl)c1)c1ccc2c(c1)nc(-c1ccc(N(CCO)CCO)cc1)n2CCc1ccc(OC(F)(F)F)cc1 (stereo not shown) [LLS100] |  | 99% | 28% | 0%
NC(=O)CC(NCc1ccncc1)c1ccc2c(c1)nc(-c1ccc(N(CCO)CCO)cc1)n2Cc1ccc(Cl)c(Cl)c1 (stereo not shown) [LLS84, 3-(2-(4-(bis(2-hydroxyethyl)amino)phenyl)-1-(3,4-dichlorobenzyl)-1H-benzo[d]imidazol-5-yl)-3-((pyridin-4-ylmethyl)amino)propanamide] |  | 119% | 109% | 138%

Reference: patent US10844052B2, “LLS compounds for treatment of cancer” (THE REGENTS OF THE UNIVERSITY OF CALIFORNIA, priority 2016, dated 2020)
